The structures appear in SMILES notation. Bounds are passed on as bounds.

For this assay, the target named is T1, human PDE2A1 (Homo sapiens, UniProt O00408).
T1 construct: GST; purchased BPS Bioscience (San Diego, Calif.) 60020; host or cells: insect cells
T1 sequence (O00408 1-920 isoform O00408-2): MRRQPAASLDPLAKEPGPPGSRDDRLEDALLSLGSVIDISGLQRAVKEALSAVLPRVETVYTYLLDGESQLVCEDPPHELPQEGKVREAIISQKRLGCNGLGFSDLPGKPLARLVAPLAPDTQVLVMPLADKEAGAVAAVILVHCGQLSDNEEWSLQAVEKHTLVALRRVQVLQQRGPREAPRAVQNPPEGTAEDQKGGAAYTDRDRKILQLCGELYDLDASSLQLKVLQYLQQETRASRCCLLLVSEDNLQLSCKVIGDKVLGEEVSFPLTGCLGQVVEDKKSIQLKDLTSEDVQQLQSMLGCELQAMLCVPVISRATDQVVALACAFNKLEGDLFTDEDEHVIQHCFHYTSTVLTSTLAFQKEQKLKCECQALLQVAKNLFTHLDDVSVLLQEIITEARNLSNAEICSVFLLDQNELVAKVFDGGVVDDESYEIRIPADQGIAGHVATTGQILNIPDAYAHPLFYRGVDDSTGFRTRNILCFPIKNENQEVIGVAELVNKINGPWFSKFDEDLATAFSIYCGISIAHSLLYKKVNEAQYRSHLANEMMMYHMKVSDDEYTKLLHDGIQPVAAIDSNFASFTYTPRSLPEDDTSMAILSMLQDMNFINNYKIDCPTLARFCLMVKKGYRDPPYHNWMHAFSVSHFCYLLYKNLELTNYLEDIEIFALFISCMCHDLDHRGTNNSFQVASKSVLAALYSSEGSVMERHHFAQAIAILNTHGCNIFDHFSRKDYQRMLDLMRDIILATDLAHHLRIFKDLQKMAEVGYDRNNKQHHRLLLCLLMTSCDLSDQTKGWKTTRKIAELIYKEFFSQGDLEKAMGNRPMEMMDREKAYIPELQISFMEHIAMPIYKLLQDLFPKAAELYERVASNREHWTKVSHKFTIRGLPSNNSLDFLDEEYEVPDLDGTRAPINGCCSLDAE
As to the kind of experiment: PDE2 IMAP FP inhibition assay, human enzyme (PDE selectivity panel format). Type of assay: biochemical. The note with it: Lab A; read-out: Human PDE2 Ki (nM) Lab A. How it is done: Selectivity for PDE2, as compared to other PDE families, was assessed using the IMAP® technology. Human PDE10A2 enzyme was prepared from cytosolic fractions of transiently transfected HEK cells. All other PDE's were GST Tag human enzyme expressed in insect cells and were obtained from BPS Bioscience (San Diego, Calif.): PDE1A (Cat#60010), human PDE2A1 (Cat#60020), PDE3A (Cat#60030), PDE4A1A (Cat#60040), PDE5A1 (Cat#60050), PDE6C (Cat#60060), PDE7A (Cat#60070), PDE8A1 (Cat#60080), PDE9A2 (Cat#60090), PDE11A4 (Cat#60110).
Assays for PDE 1 through 11 were performed in parallel at room temperature in 384-well microtiter plates with an incubation volume of 20.2 μL. Solutions of test compounds were prepared in DMSO and serially diluted with DMSO to yield 30 μL of each of ten solutions differing by 3-fold in concentration, at 32 serial dilutions per plate. […] A Labcyte POD 810 (Labcyte, Sunnyvale, Calif.) was used to dispense 200 nL from each well of the titration plate to make eleven copies of the assay plate for each titration, one copy for each PDE enzyme. A solution of each enzyme (dilution from aliquots, sufficient to produce 20% substrate conversion) and a separate solution of FAM-labeled cAMP or FAM-labeled cGMP from Molecular Devices (Sunnyvale, Calif., product # R7506 or cGMP#R7508), at a final concentration of 50 nM were made in the assay buffer (10 mM Tris HCl, pH 7.2, 10 mM MgCl2, 0.05% NaN3 0.01% Tween-20, and 1 mM DTT). Note that the substrate for PDE2 is 50 nM FAM cAMP containing 1000 nM of cGMP. The enzyme and the substrate were then added to the assay plates in two consecutive additions of 10 μL and then shaken to mix. The reaction was allowed to proceed at room temperature for 60 minutes. A binding solution was then made from the kit components, comprised of 80% Solution A, 20% Solution B and binding reagent at a volume of 1/600 the total binding solution. The enzymatic reaction was stopped by addition of 60 μL of the binding solution to each well of the assay plate. The plates were sealed and shaken for 10 seconds. The plates were incubated at room temperature for one hour, then the parallel and perpendicular fluorescence was measured using a Tecan Genios Pro plate reader (Tecan, Switzerland). The apparent inhibition constants for the compounds against all 11 PDE's was determined from the parallel and perpendicular fluorescent readings as described for PDE10 FP assay using the following apparent KM values for each enzyme and substrate combination: PDE1A (FAM cGMP) 70 nM, human PDE2A1 (FAM cAMP) 10,000 nM, PDE3A (FAM cAMP) 50 nM, PDE4A1A (FAM cAMP) 1500 nM, PDE5A1 (FAM cGMP) 400 nM, PDE6C (FAM cGMP) 700 nM, PDE7A (FAM cAMP) 150 nM, PDE8A1 (FAM cAMP) 50 nM, PDE9A2 (FAM cGMP) 60 nM, PDE10A2 (FAM cAMP) 150 nM, PDE11A4 (FAM cAMP) 1000 nM. The intrinsic PDE2 inhibitory activity of a compound which may be used in accordance with the present invention may be determined by these assays. […]
Broadly, the Ki is a measure of affinity in units of concentration, obtained from inhibition or displacement. `Cc1nc(-c2cnn(C(CO)c3ccc(C(F)(F)F)cc3F)c2)cc(=O)[nH]1` (single isomer, unassigned) [Example 109, (R)- or (S)-6-(1-(1-(2-fluoro-4-(trifluoromethyl)phenyl)-2-hydroxyethyl)-1H-pyrazol-4-yl)-2-methylpyrimidin-4(3H)-one]: the Ki came out at 27.5 nM.

Regarding `CCc1ccc(C(CO)n2cc(-c3cc(=O)[nH]c(C)n3)cn2)c(F)c1` (single isomer, unassigned) [Example 111, (R)- or (S)-6-(1-(1-(4-ethyl-2-fluorophenyl)-2-hydroxyethyl)-1H-pyrazol-4-yl)-2-methylpyrimidin-4(3H)-one], the Ki came to 42.5 nM.

With `CCc1ccc([C@](C)(O)c2cnn(-c3cc(=O)[nH]c(C)n3)c2)c(F)c1` (single isomer, unassigned) [Example 12], the Ki came to 244 nM.

Turning to `Cc1nc(-c2cnn(C(C)c3ccc(CC(F)(F)F)cc3C)c2)cc(=O)[nH]1` (single isomer, unassigned) [Example 106, (S)- or (R)-2-methyl-6-(1-(1-(2-methyl-4-(2,2,2-trifluoroethyl)phenyl)ethyl)-1H-pyrazol-4-yl)pyrimidin-4(3H)-one], the Ki turned out to be 710 nM.

Regarding `Cc1nc(-n2cc(C(C)(O)c3ccc(C(F)(F)F)cc3Cl)cn2)cc(=O)[nH]1` (single isomer, unassigned) [Example 118, (S)- or (R)-6-(4-(1-(2-chloro-4-(trifluoromethyl)phenyl)-1-hydroxyethyl)-1H-pyrazol-1-yl)-2-methylpyrimidin-4(3H)-one], the Ki turned out to be 47.8 nM.

As to `CCc1ccc([C@@H](CO)n2cc(-c3cc(=O)[nH]c(C)n3)cn2)c(Cl)c1` (single isomer, unassigned) [Example 17], the Ki was found to be 683 nM.

With `CCCc1ccc([C@](C)(O)c2cnn(-c3cc(=O)[nH]c(C)n3)c2)c(F)c1` (single isomer, unassigned) [Example 14], the Ki came to 1400 nM.

Take `CCc1ccc(C(CO)c2cnn(-c3cc(=O)[nH]c(C)n3)c2)c(F)c1` (single isomer, unassigned) [Example 116, (S)- or (R)-6-(4-(1-(4-ethyl-2-fluorophenyl)-2-hydroxyethyl)-1H-pyrazol-1-yl)-2-methylpyrimidin-4(3H)-one]: the Ki was found to be 537 nM.

`Cc1nc(-c2cnn([C@H](C)c3c(F)cc(C(F)(F)F)cc3F)c2)cc(=O)[nH]1` (single isomer, unassigned) [Example 7]: the Ki came to 126 nM.

Turning to `Cc1nc(-c2cnn(C(CO)c3ccc(C(F)(F)F)cc3Cl)c2)cc(=O)[nH]1` (single isomer, unassigned) [Example 123, (S)- or (R)-6-(1-(1-(2-chloro-4-(trifluoromethyl)phenyl)-2-hydroxyethyl)-1H-pyrazol-4-yl)-2-methylpyrimidin-4(3H)-one], the Ki was determined as 6.5 nM.

Regarding `CCc1ccc(C(CO)c2cnn(-c3cc(=O)[nH]c(C)n3)c2)c(Cl)c1` (single isomer, unassigned) [Example 120, (R)- or (S)-6-(4-(1-(2-chloro-4-ethylphenyl)-2-hydroxyethyl)-1H-pyrazol-1-yl)-2-methylpyrimidin-4(3H)-one], the Ki turned out to be 321 nM.

For `Cc1nc(-c2cnn(C(C)c3ccc(C(F)(F)F)cc3F)c2C)cc(=O)[nH]1` (single isomer, unassigned) [Example 72, (S)- or (R)-6-(1-(1-(2-fluoro-4-(trifluoromethyl)phenyl)ethyl)-5-methyl-1H-pyrazol-4-yl)-2-methylpyrimidin-4(3H)-one], the Ki amounted to 412 nM.

For `Cc1nc(-c2cnn(C(C)c3ccc(C4CC4)cc3Cl)c2)cc(=O)[nH]1` (single isomer, unassigned) [Example 107, (R)- or (S)-6-(1-(1-(2-chloro-4-cyclopropylphenyl)ethyl)-1H-pyrazol-4-yl)-2-methylpyrimidin-4(3H)-one], the Ki came out at 9.4 nM.

For `Cc1nc(-c2cnn(C(C)c3ccc(C4CC4)cc3Cl)c2)cc(=O)[nH]1` (single isomer, unassigned) [Example 108, (S)- or (R)-6-(1-(1-(2-chloro-4-cyclopropylphenyl)ethyl)-1H-pyrazol-4-yl)-2-methylpyrimidin-4(3H)-one], the Ki was determined as 358 nM.

Take `Cc1nc(-c2cnn(C(C)c3ccc(CC(F)(F)F)cc3C)c2)cc(=O)[nH]1` (single isomer, unassigned) [Example 105, (R)- or (S)-2-methyl-6-(1-(1-(2-methyl-4-(2,2,2-trifluoroethyl)phenyl)ethyl)-1H-pyrazol-4-yl)pyrimidin-4(3H)-one]: the Ki is more than 2960 nM.

With `Cc1nc(-c2cnn(C(CO)c3ccc(C(F)(F)F)cc3Cl)c2)cc(=O)[nH]1` (single isomer, unassigned) [Example 122, (R)- or (S)-6-(1-(1-(2-chloro-4-(trifluoromethyl)phenyl)-2-hydroxyethyl)-1H-pyrazol-4-yl)-2-methylpyrimidin-4(3H)-one], the Ki came to 616 nM.

Take `Cc1nc(-c2cn(C(C)c3ccc(C(F)(F)F)cc3F)nc2C)cc(=O)[nH]1` (single isomer, unassigned) [Example 69, (R)- or (S)-(6-(1-(1-(2-fluoro-4-(trifluoromethyl)phenyl)ethyl)-3-methyl-1H-pyrazol-4-yl)-2-methylpyrimidin-4(3H)-one]: the Ki was 32.6 nM.

On to `Cc1nc(-c2cnn(C(C)c3ccc(C(F)(F)F)cc3F)c2C)cc(=O)[nH]1` (single isomer, unassigned) [Example 71, (R)- or (S)-6-(1-(1-(2-fluoro-4-(trifluoromethyl)phenyl)ethyl)-5-methyl-1H-pyrazol-4-yl)-2-methylpyrimidin-4(3H)-one], for which the Ki was 16.5 nM.

For the molecule `CCc1ccc(C(CO)c2cnn(-c3cc(=O)[nH]c(C)n3)c2)c(Cl)c1` (single isomer, unassigned) [Example 121, (S)- or (R)-6-(4-(1-(2-chloro-4-ethylphenyl)-2-hydroxyethyl)-1H-pyrazol-1-yl)-2-methylpyrimidin-4(3H)-one], the Ki was 8.4 nM.

Consider `CCc1ccc(C(CO)c2cnn(-c3cc(=O)[nH]c(C)n3)c2)c(F)c1` (single isomer, unassigned) [Example 115, (R)- or (S)-6-(4-(1-(4-ethyl-2-fluorophenyl)-2-hydroxyethyl)-1H-pyrazol-1-yl)-2-methylpyrimidin-4(3H)-one], for which the Ki amounted to 163 nM.

Turning to `Cc1nc(-c2cnn([C@H](C)c3c(F)cc(C(F)(F)F)cc3F)c2)cc(=O)[nH]1` (single isomer, unassigned) [Example 8], the Ki is 107 nM.

With `Cc1nc(-c2cn(C(C)c3ccc(C(F)(F)F)cc3F)nc2C)cc(=O)[nH]1` (single isomer, unassigned) [Example 70, (S)- or (R)-(6-(1-(1-(2-fluoro-4-(trifluoromethyl)phenyl)ethyl)-3-methyl-1H-pyrazol-4-yl)-2-methylpyrimidin-4(3H)-one], the Ki was 312 nM.

As to `CCc1ccc(C(CO)n2cc(-c3cc(=O)[nH]c(C)n3)cn2)c(F)c1` (single isomer, unassigned) [Example 112, (S)- or (R)-6-(1-(1-(4-ethyl-2-fluorophenyl)-2-hydroxyethyl)-1H-pyrazol-4-yl)-2-methylpyrimidin-4(3H)-one], the Ki worked out at 438 nM.

For the molecule `CCc1ccc([C@@H](CO)n2cc(-c3cc(=O)[nH]c(C)n3)cn2)c(Cl)c1` (single isomer, unassigned) [Example 18], the Ki was 10.7 nM.

On to `CCc1ccc(C(C)(O)c2cnn(-c3cc(=O)[nH]c(C)n3)c2)c(Cl)c1` (centres unmarked) [Example 119, 6-(4-(1-(2-chloro-4-ethylphenyl)-1-hydroxyethyl)-1H-pyrazol-1-yl)-2-methylpyrimidin-4(3H)-one], for which the Ki came to 16.7 nM.

As to `CCc1ccc([C@](C)(O)c2cnn(-c3cc(=O)[nH]c(C)n3)c2)c(F)c1` (single isomer, unassigned) [Example 11], the Ki amounted to 42.5 nM.

These data come from patent US10287269B2, “Pyrazolyl pyrimidinone compounds as PDE2 inhibitors” (Merck Sharp & Dohme Corp., priority 2015, dated 2019).
